Data from patent US7371746B2, “1,2,4-Thiadiazole compounds and pests controlling composition containing the same” (Sumitomo Chemical Company Limited, priority 2003, dated 2008).

System: Aphis gossypii (cotton aphid)
Assay: Test Example 1: spray test on cucumber plants infested with cotton aphid
Format: in vivo
Settings: 144 h, 500 ppm active ingredient, spray liquid 20 ml/cup on cucumber plant, sixth day after the application
Method: The formulation of each of the present compounds (3), (4), (5), (6), (7), (8), (9), (10), (11), (14), (15a), (15b), (16a), (17a), (17b), (18a), (18b), (19), (20), (21) and (22) according to Formulation Example 5 was diluted with water so that the active ingredient concentration came to 500 ppm to prepare a spray liquid. The seeds of cucumber were planted in a polyethylene cup and it was grown until the first true leaf was developed. On the plant about twenty Aphis gossypii (cotton aphid) are allowed to be parasitic. On the next day, the above spray liquid was applied at a ratio of 20 ml/cup to the cucumber plant. On the sixth day after the application, the number of Aphis gossypii was examined, and the control value was determined by the following formula: Control value (%)={1−(Cb×Tai)/(Cai×Tb)}×100 wherein the variables in the formula have the following meanings: Cb: the number of insects before the treatment in the non-treated area; Cai: the number of insects at the time of observation in the non-treated area; Tb: the number of insects before the treatment in the treated area; and Tai: the number of insects at the time of observation in the treated area.

Compound	pest or weed control at 500 ppm
CC#CCOc1nsc(N2CCCCC2)n1 [present compound (3), 3-(2-butynyloxy)-5-piperidino-1,2,4-thiadiazole]	≥ 90%
CCC#CCOc1nsc(N2CCCCC2)n1 [present compound (4), 3-(2-pentynyloxy)-5-piperidino-1,2,4-thiadiazole]	≥ 90%
CC#CCOc1nsc(N2CCCCC2C)n1 (stereo not drawn) [present compound (5), 3-(2-butynyloxy)-5-(2-methylpiperidino)-1,2,4-thiadiazole]	≥ 90%
CCC#CCOc1nsc(N2CCCCC2C)n1 (stereo not drawn) [present compound (6), 3-(2-pentynyloxy)-5-(2-methylpiperidino)-1,2,4-thiadiazole]	≥ 90%
CC#CCOc1nsc(N2CCCC(C)C2)n1 (stereo not drawn) [present compound (7), 3-(2-butynyloxy)-5-(3-methylpiperidino)-1,2,4-thiadiazole]	≥ 90%
CCC#CCOc1nsc(N2CCCC(C)C2)n1 (stereo not drawn) [present compound (8), 3-(2-pentynyloxy)-5-(3-methylpiperidino)-1,2,4-thiadiazole]	≥ 90%
CC#CCOc1nsc(N2CCOCC2)n1 [present compound (9), 3-(2-butynyloxy)-5-morpholino-1,2,4-thiadiazole]	≥ 90%
CCC#CCOc1nsc(N2CCOCC2)n1 [present compound (10), 3-(2-pentynyloxy)-5-morpholino-1,2,4-thiadiazole]	≥ 90%
CC#CCOc1nsc(N2CCC(C)CC2)n1 [present compound (11), 3-(2-butynyloxy)-5-(4-methylpiperidino)-1,2,4-thiadiazole]	≥ 90%
CCC#CCOc1nsc(N2CCCCCC2)n1 [present compound (14), 3-(2-pentynyloxy)-5-hexamethyleneimino-1,2,4-thiadiazole]	≥ 90%
CC#CCOc1nsc(N2CC(C)CC(C)C2)n1 (stereo not drawn) [present compound (15a), 3-(2-butynyloxy)-5-(3,5-dimethylpiperidino)-1,2,4-thiadiazole]	≥ 90%
CCC#CCOc1nsc(N2CC(C)CC(C)C2)n1 (stereo not drawn) [present compound (16a), 3-(2-pentynyloxy)-5-(3,5-dimethylpiperidino)-1,2,4-thiadiazole]	≥ 90%
CC#CCOc1nsc(N2CC(C)OC(C)C2)n1 (stereo not drawn) [present compound (17a), 3-(2-butynyloxy)-5-(2,6-dimethylmorpholino)-1,2,4-thiadiazole]	≥ 90%
CCC#CCOc1nsc(N2CC(C)OC(C)C2)n1 (stereo not drawn) [present compound (18a), 3-(2-pentynyloxy)-5-(2,6-dimethylmorpholino)-1,2,4-thiadiazole]	≥ 90%
CC#CCOc1nsc(N2CC(CC)CC(CC)C2)n1 (stereo not drawn) [present compound (19), 3-(2-butynyloxy)-5-(3,5-diethylpiperidino)-1,2,4-thiadiazole]	≥ 90%
C#CCOc1nsc(N2CC(C)CC(C)C2)n1 (stereo not drawn) [present compound (20), 3-(2-propynyloxy)-5-(3,5-dimethylpiperidino)-1,2,4-thiadiazole]	≥ 90%
CC#CC(C)Oc1nsc(N2CC(C)CC(C)C2)n1 (stereo not drawn) [present compound (21), 3-(1-methyl-2-butynyloxy)-5-(3,5-dimethylpiperidino)-1,2,4-thiadiazole]	≥ 90%
CC#CCOc1nsc(N2CCCC(C(F)(F)F)C2)n1 (stereo not drawn) [present compound (22), 3-(2-butynyloxy)-5-(3-trifluoromethylpiperidino)-1,2,4-thiadiazole]	≥ 90%
